Measurements from patent publication US4994376A, “Detection of bacteroides gingivalis” (priority 1987, dated 1991).
Like-named read-outs stand apart in the source and are kept apart here.

Experiments:
Format in all cases: biochemical
B. asaccharolyticus = settings: β-naphthylamine liberated after 60 minutes, 37° C.
Summary of the method: (§1)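 Hydrolysis of N-CBz-glycyl-glycyl-L-arginine-β-naphthylamide over 1 h at 37 °C, then colour developed with Fast Garnet GBC (0.5 mg/ml) in 1M acetate pH 4.2 with 10% Tween 20 for 15 min at room temperature. Absorbance read at 525 nm against an enzyme-free control; activity given as nmol β-naphthylamine released in 60 min.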

B. levii = settings: β-naphthylamine liberated after 60 minutes, 37° C.
Summary of the method: as §1

B. loescheii = settings: β-naphthylamine liberated after 60 minutes, 37° C.
Summary of the method: as §1

B. mel. ss. intermedius = settings: β-naphthylamine liberated after 60 minutes, 37° C.
Summary of the method: as §1

Bacteroides gingivalis = settings: β-naphthylamine liberated after 60 minutes, 37° C.
Summary of the method: as §1

C. ochracea = settings: strain ATCC 27872; β-naphthylamine liberated after 60 minutes, 37° C.
Summary of the method: as §1

Capnocytophaga sp. = settings: strain JD3-5; β-naphthylamine liberated after 60 minutes, 37° C.
Summary of the method: as §1

"Anaerobic vibrio" = settings: strain SN2T2; β-naphthylamine liberated after 60 minutes, 37° C.
Summary of the method: (§2)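 Enzyme plus N-CBz-glycyl-glycyl-L-arginine-β-naphthylamide incubated 1 h at 37° C. Fast Garnet GBC (0.5 mg/ml) in 1M acetate pH 4.2 with 10% Tween 20 added; stood 15 min at RT. A525 read; activity given as nmol β-naphthylamine liberated in 60 min.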

A. seminis = settings: strain ATCC 15768; β-naphthylamine liberated after 60 minutes, 37° C.
Summary of the method: as §2

A. viscosus = settings: β-naphthylamine liberated after 60 minutes, 37° C.
Summary of the method: as §2

[1] = system: Actinobacillus actinomycetemcomitans; settings: β-naphthylamine liberated after 60 minutes, 37° C.
Summary of the method: as §2

Actinomyces israeli = settings: β-naphthylamine liberated after 60 minutes, 37° C.
Summary of the method: as §2

Campylobacter sputorum = settings: strain Ba1-21; β-naphthylamine liberated after 60 minutes, 37° C.
Summary of the method: as §2

Eikenella corrodens = settings: strain BP1-6; β-naphthylamine liberated after 60 minutes, 37° C.
Summary of the method: as §2

Fusobacterium nucleatum = settings: β-naphthylamine liberated after 60 minutes, 37° C.
Summary of the method: as §2

S. mutans = settings: strain ATCC 25175; β-naphthylamine liberated after 60 minutes, 37° C.
Summary of the method: as §2

S. sanguis = settings: β-naphthylamine liberated after 60 minutes, 37° C.
Summary of the method: as §2

Streptococcus mitis = settings: β-naphthylamine liberated after 60 minutes, 37° C.
Summary of the method: as §2

V. parvula = settings: strain ATCC 10790; β-naphthylamine liberated after 60 minutes, 37° C.
Summary of the method: as §2

Veillonella sp. = settings: strain SE1M2; β-naphthylamine liberated after 60 minutes, 37° C.
Summary of the method: as §2

A. equuli = test: Aminopeptidase activity on β-naphthylamide substrates; settings: strain ATCC 19392; β-naphthylamine liberated after 60 minutes, 37° C.
Summary of the method: as §2

A. suis = test: as above; settings: strain ATCC 15557; β-naphthylamine liberated after 60 minutes, 37° C.
Summary of the method: as §2

F. periodonticum = test: as above; settings: strain EK1-15; β-naphthylamine liberated after 60 minutes, 37° C.
Summary of the method: as §2

Haemophilus aphrophilus = test: as above; settings: β-naphthylamine liberated after 60 minutes, 37° C.
Summary of the method: as §2

L. fermentum = test: as above; settings: strain ATCC 11581; β-naphthylamine liberated after 60 minutes, 37° C.
Summary of the method: as §2

Lactobacillus casei = test: as above; settings: β-naphthylamine liberated after 60 minutes, 37° C.
Summary of the method: as §2

S. salivarius = test: as above; settings: β-naphthylamine liberated after 60 minutes, 37° C.
Summary of the method: as §2

Question: What does the source list for NC(=O)[C@@H](N)CCC(=O)O [α-Glu, α -glutamine]?
Answer: Aminopeptidase activity (B. asaccharolyticus; strain 536B): 0 nmol; Aminopeptidase activity (B. asaccharolyticus; strain ATCC 18569): 0 nmol; Aminopeptidase activity (B. asaccharolyticus; strain ATCC 25260): 0 nmol; Aminopeptidase activity (B. asaccharolyticus; strain ATCC 27067): 0 nmol; Aminopeptidase activity (B. asaccharolyticus; strain NY446): 0 nmol; Aminopeptidase activity (B. levii; strain 18-1-5): 0 nmol; Aminopeptidase activity (B. levii; strain 18-1-8): 2 nmol; Aminopeptidase activity (B. loescheii; strain ATCC 15930): 0 nmol; Aminopeptidase activity (B. loescheii; strain VPI4196): 0 nmol; Aminopeptidase activity (B. mel. ss. intermedius; strain ATCC 25261): 0 nmol; Aminopeptidase activity (B. mel. ss. intermedius; strain ATCC 33563): 0 nmol; Aminopeptidase activity (B. mel. ss. intermedius; strain NCTC 9336): 0 nmol; Aminopeptidase activity (Bacteroides gingivalis; strain 9-14K-1): 0 nmol; Aminopeptidase activity (Bacteroides gingivalis; strain 11-1-2): 0 nmol; Aminopeptidase activity (Bacteroides gingivalis; strain 381): 0 nmol; Aminopeptidase activity (Bacteroides gingivalis; strain 1021): 0 nmol; Aminopeptidase activity (Bacteroides gingivalis; strain ATCC 33277): 1 nmol; Aminopeptidase activity (Bacteroides gingivalis; strain FAYE 19m-1): 0 nmol; Aminopeptidase activity (C. ochracea): 5 nmol; Aminopeptidase activity (Capnocytophaga sp.): 0 nmol; Aminopeptidase activity ("Anaerobic vibrio"): 0 nmol; Aminopeptidase activity (A. seminis): 0 nmol; Aminopeptidase activity (A. viscosus; strain ATCC 19246): 0 nmol; Aminopeptidase activity (A. viscosus; strain T14V): 0 nmol; Aminopeptidase activity ([1]; strain 67): 0 nmol; Aminopeptidase activity ([1]; strain 75): 0 nmol; Aminopeptidase activity ([1]; strain ATCC 29523): 0 nmol; Aminopeptidase activity ([1]; strain NCTC 9709): 0 nmol; Aminopeptidase activity ([1]; strain Y4): 0 nmol; Aminopeptidase activity (Actinomyces israeli; strain ATCC 12103): 0 nmol; Aminopeptidase activity (Actinomyces israeli; strain DK2-3): 0 nmol; Aminopeptidase activity (Campylobacter sputorum): 1 nmol; Aminopeptidase activity (Eikenella corrodens): 0 nmol; Aminopeptidase activity (Fusobacterium nucleatum; strain 2): 0 nmol; Aminopeptidase activity (Fusobacterium nucleatum; strain ATCC 25586): 0 nmol; Aminopeptidase activity (Fusobacterium nucleatum; strain D31A-24): 1 nmol; Aminopeptidase activity (S. mutans): 0 nmol; Aminopeptidase activity (S. sanguis; strain ATCC 10556): 0 nmol; Aminopeptidase activity (S. sanguis; strain ATCC 10557): 0 nmol; Aminopeptidase activity (Streptococcus mitis; strain ATCC 9815): 0 nmol; Aminopeptidase activity (Streptococcus mitis; strain ATCC 15909): 0 nmol; Aminopeptidase activity (Streptococcus mitis; strain ATCC 15911): 0 nmol; Aminopeptidase activity (Streptococcus mitis; strain ATCC 15912): 0 nmol; Aminopeptidase activity (V. parvula): 0 nmol; Aminopeptidase activity (Veillonella sp.): 0 nmol; Aminopeptidase activity (A. equuli): 0 nmol; Aminopeptidase activity (A. suis): 0 nmol; Aminopeptidase activity (F. periodonticum): 0 nmol; Aminopeptidase activity (Haemophilus aphrophilus; strain ATCC 13252): 0 nmol; Aminopeptidase activity (Haemophilus aphrophilus; strain ATCC 19415): 0 nmol; Aminopeptidase activity (Haemophilus aphrophilus; strain NCTC 5908): 0 nmol; Aminopeptidase activity (L. fermentum): 0 nmol; Aminopeptidase activity (Lactobacillus casei; strain ATCC 7469): 0 nmol; Aminopeptidase activity (Lactobacillus casei; strain ATCC 11578): 3 nmol; Aminopeptidase activity (Lactobacillus casei; strain ATCC 11582): 3 nmol; Aminopeptidase activity (S. salivarius; strain ATCC 9759): 0 nmol; Aminopeptidase activity (S. salivarius; strain ATCC 25975): 0 nmol
